Measurements reported in US8957060B2, “Tumescent antibiotic solution” (priority 2004, dated 2015).
Values after ≈ are worked out from the molar mass of the structure shown. Read-outs that look alike come from different tables or passages of the source.

Assays:
[1] = test system: Staphyloccus aureus (MRSA) ATCC 33592; assay: Minimum Inhibitory Concentration (MIC), dilution method; details: Staphylococcus aureus, 48 h, read-out: MIC end point
Experimental: Following inoculation, survival of test microorganisms was determined. This method of determining MIC was based on the method described in the NCCLS document M7: Methods for Dilution Antimicrobial Susceptibility Tests for Bacteria that Grow Aerobically; Approved Standard—Seventh Edition.

[2] = test system: Staphyloccus aureus (MRSA) ATCC 33592; assay: Minimum Bactericidal Concentration (MBC); assay type: cell-based; details: Staphylococcus aureus, read-out: MBC end point
Text: Determinations of MBC followed the method described in “Report on the Working Party on Antibiotic Sensitivity Testing of the British Society of Antimicrobial Chemotherapy: A Guide to Sensitivity Testing.”

[3] = cited from earlier work
[4] = cited from earlier work; remark: listed apart in the source
[5] = test system: platelet aggregation induced by ADP, epinephrine and collagen; details: cited from earlier work
[6] = Pharmacokinetics of TAD vs IVAD (cefazolin, metronidazole): AUC and Cmax in TISF and serum
Experimental: A clinical pharmacologic investigation was conducted to compare the pharmacokinetic advantages of two modes of systemic antibiotic delivery, Tumescent antibiotic delivery (TAD), which involves the delivery of a relatively large volume of an antibiotic-containing solution to the subcutaneous compartment, and intravenous antibiotic delivery (IVAD), which results in direct delivery of antibiotics to the blood stream, for prophylaxis of SSI. […] Methods
With Institutional Review Board (IRB) approval, the absorption pharmacokinetics of tumescent antibiotic delivery (TAD) and intravenous antibiotic delivery (IVAD) were tested in human subjects and the antibiotic delivery modes were evaluated with respect to the area under the curve (AUC) of antibiotic concentration as a function of time and peak antibiotic concentration (Cmax) in serum and TISF. 4 female subjects participated in at least one study, one subject volunteered for 2 separate studies. 5 studies were conducted: 3 involved TAD to the abdomen, 1 involved TAD to the hips and outer thighs and 1 involved TAD to the breasts. […] Each of the 5 studies consisted of 2 to 3 pharmacokinetic procedures, for a total of 14 procedures. Any procedures conducted on an individual subject were separated by at least one week. In 13 procedures only IVAD or TAD, was used. In one procedure both IVAD and TAD were used concurrently, with IVAD started and finished within five minutes after completing TAD.
TAD was conducted as described herein. Following TAD, sequential 10 ml samples of tumescent adipose tissue were obtained using a hand-held syringe-liposuction technique. Sampling began immediately after completing the TAD infiltration (T0), and continuing until the patients reported significant discomfort. Liposuction aspirate samples were obtained at 0, 1, 2, 3, 4, 6, and 8 hours in all procedures; in 4 TAD procedures, sampling continued until 10 hours. Sequential serum samples for measurement of antibiotic concentration in serum after TAD ([Serum]TAD) were obtained simultaneously.
For IVAD, the antibiotic was delivered into an antecubital vein. […]

Structure (SMILES): Cc1nnc(SCC2=C(C(=O)O)N3C(=O)[C@@H](NC(=O)Cn4cnnn4)[C@H]3SC2)s1 [Cefazolin]
- MIC [1]: 250 µg/mL (≈ 550 µM)
- MBC ([2]; 24 h, Day 1): 250 µg/mL (≈ 550 µM)
- MBC ([2]; 48 h, Day 2): 250 µg/mL (≈ 550 µM)

Structure (SMILES): CCN(CC)CC(=O)Nc1c(C)cccc1C [Lidocaine]
- duration of local anesthesia ([3]; 1% or 2% commercial concentrations of lidocaine with epinephrine): 2 to 3 h
- persistence of profound surgical local anesthesia ([3]; tumescent local anesthesia (TLA)): 6 to 8 h
- dosage limitation approved by the FDA ([4]; infiltration local anesthesia, commercial lidocaine (1%) with epinephrine (1:100,000)): 7 mg/kg
- maximum safe mg/kg dosage (estimated) ([4]; tumescent lidocaine, TLA without liposuction, adults): 30 mg/kg
- concentration that consistently inhibits in-vitro platelet aggregation ([5]; aggregation induced by ADP, epinephrine and collagen): ≥ 0.5 mg/mL
- safe systemic concentration with no effect on platelet aggregation [5]: ≤ 6 micrograms/ml

Structure (SMILES): Cc1ncc([N+](=O)[O-])n1CCO [Metronidazole]
- AUC[Serum]IVAD ([6]; Study 5, 600 mg metronidazole IVAD): 127
- period in which serum concentration of metronidazole exceeds 4 μg/ml ([6]; female, human, in vivo): 0 to 12 h

Structure (SMILES): CO[C@@]1(NC(=O)Cc2cccs2)C(=O)N2C(C(=O)O)=C(COC(N)=O)CS[C@@H]21 [cefoxitin]
- times greater antibiotic exposure in ISF by TAD than by IVAD (150×AUC[ISF]IVAD<AUC[TISF]TAD) ([6]; human, in vivo): 150
